Results from the NIST ThermoML archive (doi:10.1016/j.fluid.2012.11.009).
Values joined by “and” are separate entries in the source; they are usually repeats but may differ in a detail not shown here. Identical values can stand only once. ± gives the expanded uncertainty stated by the source.

Conditions: Liquid, Distillation

CC(O)CNCC(C)O (centres undefined) [N-(2-hydroxypropyl)-2-hydroxy-1-propanamine]
Conditions	vapor or sublimation pressure
420 K	2.8 ± 2.4 kPa
422 K	3 ± 2.4 kPa and 3.1 ± 2.4 kPa
428 K	4 ± 2.4 kPa and 4.4 ± 2.4 kPa
429 K	4.1 ± 2.4 kPa
433 K	4.9 ± 2.4 kPa and 5.1 ± 2.4 kPa
437 K	5.9 ± 2.5 kPa
440 K	6.8 ± 2.5 kPa
441 K	7 ± 2.5 kPa
444 K	7.8 ± 2.5 kPa and 7.9 ± 2.5 kPa
447 K	8.9 ± 2.5 kPa
448 K	9.9 ± 2.5 kPa
449 K	9.9 ± 2.5 kPa
450 K	10.1 ± 2.6 kPa
451 K	10.6 ± 2.5 kPa and 10.8 ± 2.5 kPa
452 K	10.9 ± 2.6 kPa
453 K	11.9 ± 2.6 kPa
454 K	11.8 ± 2.5 kPa and 11.9 ± 2.5 kPa
456 K	12.9 ± 2.6 kPa
457 K	13.1 ± 2.6 kPa and 13.9 ± 2.6 kPa
458 K	13.9 ± 2.7 kPa and 14 ± 2.7 kPa
460 K	14.9 ± 2.7 kPa
461 K	15.8 ± 2.6 kPa
464 K	17.2 ± 2.6 kPa
465 K	17.9 ± 2.6 kPa
